In ChEMBL document CHEMBL5346873, “Strategic modification of low-activity natural antimicrobial peptides confers antibacterial potential in vitro and in vivo” (Eur J Med Chem, 2023):
Values after ≈ are worked out from the molar mass of the structure shown.

Tests used:
Salmonella typhimurium [1] = test: Antibacterial activity against Salmonella typhimurium incubated for 16 to 20 hrs; type: functional, Salmonella enterica subsp. enterica serovar Typhimurium; conditions: Salmonella enterica; time 16-20 hrs
Streptococcus agalactiae [2] = test: Bactericidal activity against Streptococcus agalactiae incubated overnight; type: functional
Vibrio alginolyticus [3] = test: Antibacterial activity against Vibrio alginolyticus incubated for 16 to 20 hrs; type: functional; conditions: time 16-20 hrs
Klebsiella pneumoniae [4] = test: Antibacterial activity against NDM Klebsiella pneumoniae incubated for 16 to 20 hrs; type: functional; conditions: time 16-20 hrs
Klebsiella oxytoca [5] = test: Antibacterial activity against Klebsiella oxytoca incubated for 16 to 20 hrs; type: functional; conditions: time 16-20 hrs
Klebsiella aerogenes [6] = test: Bactericidal activity against Enterobacter aerogenes incubated overnight; type: functional
Edwardsiella tarda [7] = test: Antibacterial activity against Edwardsiella tarda incubated for 16 to 20 hrs; type: functional; conditions: time 16-20 hrs
Vibrio vulnificus [8] = test: Antibacterial activity against Vibrio vulnificus V2 incubated for 16 to 20 hrs; type: functional; conditions: time 16-20 hrs
[9] = tested on: Staphylococcus haemolyticus; test: Antibacterial activity against Staphylococcus haemolyticus incubated for 16 to 20 hrs; type: functional; conditions: time 16-20 hrs
Nakaseomyces glabratus [10] = test: Fungicidal activity against Candida glabrata incubated overnight; type: functional
Vibrio vulnificus [11] = test: Antibacterial activity against Vibrio vulnificus V3 incubated for 16 to 20 hrs; type: functional; conditions: time 16-20 hrs
Enterococcus faecium [12] = test: Bactericidal activity against Enterococcus faecium incubated overnight; type: functional
Vibrio harveyi [13] = test: Antibacterial activity against Vibrio harveyi incubated for 16 to 20 hrs; type: functional; conditions: time 16-20 hrs
Candida tropicalis [14] = test: Antifungal activity against Candida tropicalis incubated for 16 to 20 hrs; type: functional; conditions: time 16-20 hrs
Vibrio anguillarum [15] = test: Antibacterial activity against Listonella anguillarum incubated for 16 to 20 hrs; type: functional; conditions: time 16-20 hrs
Vibrio vulnificus [16] = test: Antibacterial activity against Vibrio vulnificus 204 incubated for 16 to 20 hrs; type: functional; conditions: time 16-20 hrs
Aeromonas hydrophila [17] = test: Antibacterial activity against Aeromonas hydrophila incubated for 16 to 20 hrs; type: functional; conditions: time 16-20 hrs
Klebsiella pneumoniae [18] = test: Bactericidal activity against NDM Klebsiella pneumoniae incubated overnight; type: functional
Escherichia coli [19] = test: Bactericidal activity against Escherichia coli incubated overnight; type: functional
Salmonella enterica [20] = test: Bactericidal activity against Salmonella enterica incubated overnight; type: functional
Pseudomonas aeruginosa [21] = test: Antibacterial activity against Pseudomonas aeruginosa incubated for 16 to 20 hrs; type: functional; conditions: time 16-20 hrs
Streptococcus iniae [22] = test: Bactericidal activity against Streptococcus iniae incubated overnight; type: functional
Vibrio vulnificus [23] = test: Bactericidal activity against Vibrio vulnificus 204 incubated overnight; type: functional
Klebsiella aerogenes [24] = test: Antibacterial activity against Enterobacter aerogenes incubated for 16 to 20 hrs; type: functional; conditions: time 16-20 hrs
[25] = tested on: Staphylococcus haemolyticus; test: Bactericidal activity against Staphylococcus haemolyticus incubated overnight; type: functional
Pseudomonas aeruginosa [26] = test: Bactericidal activity against Pseudomonas aeruginosa incubated overnight; type: functional
Vibrio vulnificus [27] = test: Antibacterial activity against Vibrio vulnificus V1 incubated for 16 to 20 hrs; type: functional; conditions: time 16-20 hrs
Candida tropicalis [28] = test: Fungicidal activity against Candida tropicalis incubated overnight; type: functional
Vibrio vulnificus [29] = test: Bactericidal activity against Vibrio vulnificus V1 incubated overnight; type: functional
Escherichia coli [30] = test: Antibacterial activity against Escherichia coli incubated for 16 to 20 hrs; type: functional; conditions: time 16-20 hrs
Vibrio alginolyticus [31] = test: Bactericidal activity against Vibrio alginolyticus incubated overnight; type: functional
Streptococcus iniae [32] = test: Antibacterial activity against Streptococcus iniae incubated for 16 to 20 hrs; type: functional; conditions: time 16-20 hrs
Vibrio vulnificus [33] = test: Bactericidal activity against Vibrio vulnificus V2 incubated overnight; type: functional
Vibrio harveyi [34] = test: Bactericidal activity against Vibrio harveyi incubated overnight; type: functional
Salmonella typhimurium [35] = test: Bactericidal activity against Salmonella typhimurium incubated overnight; type: functional, Salmonella enterica subsp. enterica serovar Typhimurium; conditions: Salmonella enterica
Aeromonas hydrophila [36] = test: Bactericidal activity against Aeromonas hydrophila incubated overnight; type: functional
Vibrio anguillarum [37] = test: Bactericidal activity against Listonella anguillarum incubated overnight; type: functional
Klebsiella oxytoca [38] = test: Bactericidal activity against Klebsiella oxytoca incubated overnight; type: functional
Enterococcus faecium [39] = test: Antibacterial activity against Enterococcus faecium incubated for 16 to 20 hrs; type: functional; conditions: time 16-20 hrs
Salmonella enterica [40] = test: Antibacterial activity against Salmonella enterica incubated for 16 to 20 hrs; type: functional; conditions: time 16-20 hrs
Enterococcus faecalis [41] = test: Bactericidal activity against Enterococcus faecalis incubated overnight; type: functional
Edwardsiella tarda [42] = test: Bactericidal activity against Edwardsiella tarda incubated overnight; type: functional
Streptococcus agalactiae [43] = test: Antibacterial activity against Streptococcus agalactiae incubated for 16 to 20 hrs; type: functional; conditions: time 16-20 hrs
Vibrio vulnificus [44] = test: Bactericidal activity against Vibrio vulnificus V3 incubated overnight; type: functional
Nakaseomyces glabratus [45] = test: Antifungal activity against Candida glabrata incubated for 16 to 20 hrs; type: functional; conditions: time 16-20 hrs
Enterococcus faecalis [46] = test: Antibacterial activity against Enterococcus faecalis incubated for 16 to 20 hrs; type: functional; conditions: time 16-20 hrs
Vibrio vulnificus [47] = test: Antibacterial activity against Vibrio vulnificus infected in BALB/c mouse wound infection model assessed as survival at 0.048 ug per animal administered 12 hrs post infection and measured for 14 days; type: functional; conditions: dose 0.048 µg; time 14 day
Acinetobacter baumannii = test: Antibacterial activity against Acinetobacter baumannii; type: functional
Vibrio vulnificus [48] = test: Antibacterial activity against Vibrio vulnificus 204 assessed as induction of resistance development by measuring fold increase in MIC measured after 15 passages; type: functional

## CC1(C)S[C@@H]2[C@H](NC(=O)[C@H](N)c3ccccc3)C(=O)N2[C@H]1C(=O)O [AMPICILLIN]
Salmonella typhimurium [1]
  MIC: > 100 µg/mL
Streptococcus agalactiae [2]
  MBC: < 1.56 µg/mL
Vibrio alginolyticus [3]
  MIC: > 100 µg/mL
Klebsiella pneumoniae [4]
  MIC: > 100 µg/mL
Klebsiella oxytoca [5]
  MIC: > 100 µg/mL
Klebsiella aerogenes [6]
  MBC: 100 µg/mL (≈ 286 µM)
Edwardsiella tarda [7]
  MIC: 3.12 µg/mL (≈ 8.94 µM)
Vibrio vulnificus [8]
  MIC: 50 µg/mL (≈ 143 µM)
[9]
  MIC: < 1.56 µg/mL
Nakaseomyces glabratus [10]
  MFC: > 100 µg/mL
Vibrio vulnificus [11]
  MIC: 50 µg/mL (≈ 143 µM)
Enterococcus faecium [12]
  MBC: < 1.56 µg/mL
Vibrio harveyi [13]
  MIC: > 100 µg/mL
Candida tropicalis [14]
  MIC: > 100 µg/mL
Vibrio anguillarum [15]
  MIC: > 100 µg/mL
Vibrio vulnificus [16]
  MIC: > 100 µg/mL
Aeromonas hydrophila [17]
  MIC: > 100 µg/mL
Klebsiella pneumoniae [18]
  MBC: > 100 µg/mL
Escherichia coli [19]
  MBC: 6.25 µg/mL (≈ 17.9 µM)
Salmonella enterica [20]
  MBC: 6.25 µg/mL (≈ 17.9 µM)
Pseudomonas aeruginosa [21]
  MIC: > 100 µg/mL
Streptococcus iniae [22]
  MBC: 6.25 µg/mL (≈ 17.9 µM)
Vibrio vulnificus [23]
  MBC: > 100 µg/mL
Klebsiella aerogenes [24]
  MIC: 50 µg/mL (≈ 143 µM)
[25]
  MBC: < 1.56 µg/mL
Pseudomonas aeruginosa [26]
  MBC: > 100 µg/mL
Vibrio vulnificus [27]
  MIC: 50 µg/mL (≈ 143 µM)
Candida tropicalis [28]
  MFC: > 100 µg/mL
Vibrio vulnificus [29]
  MBC: 50 µg/mL (≈ 143 µM)
Escherichia coli [30]
  MIC: 3.12 µg/mL (≈ 8.94 µM)
Vibrio alginolyticus [31]
  MBC: > 100 µg/mL
Streptococcus iniae [32]
  MIC: 6.25 µg/mL (≈ 17.9 µM)
Vibrio vulnificus [33]
  MBC: 50 µg/mL (≈ 143 µM)
Vibrio harveyi [34]
  MBC: > 100 µg/mL
Salmonella typhimurium [35]
  MBC: > 100 µg/mL
Aeromonas hydrophila [36]
  MBC: > 100 µg/mL
Vibrio anguillarum [37]
  MBC: > 100 µg/mL
Klebsiella oxytoca [38]
  MBC: > 100 µg/mL
Enterococcus faecium [39]
  MIC: < 1.56 µg/mL
Salmonella enterica [40]
  MIC: 3.12 µg/mL (≈ 8.94 µM)
Enterococcus faecalis [41]
  MBC: > 100 µg/mL
Edwardsiella tarda [42]
  MBC: 3.12 µg/mL (≈ 8.94 µM)
Streptococcus agalactiae [43]
  MIC: < 1.56 µg/mL
Vibrio vulnificus [44]
  MBC: 50 µg/mL (≈ 143 µM)
Nakaseomyces glabratus [45]
  MIC: > 100 µg/mL
Enterococcus faecalis [46]
  MIC: 100 µg/mL (≈ 286 µM)

## C[C@H]1c2cccc(O)c2C(=O)C2=C(O)[C@]3(O)C(=O)C(C(N)=O)=C(O)[C@@H](N(C)C)[C@@H]3[C@@H](O)[C@@H]21.O [DOXYCYCLINE]
Salmonella typhimurium [1]
  MIC: < 1.56 µg/mL
Streptococcus agalactiae [2]
  MBC: < 1.56 µg/mL
Vibrio alginolyticus [3]
  MIC: < 1.56 µg/mL
Vibrio vulnificus [47]
  Activity: 25%
Klebsiella pneumoniae [4]
  MIC: 25 µg/mL
Klebsiella oxytoca [5]
  MIC: 3.12 µg/mL
Klebsiella aerogenes [6]
  MBC: 6.25 µg/mL
Edwardsiella tarda [7]
  MIC: < 1.56 µg/mL
Vibrio vulnificus [8]
  MIC: < 1.56 µg/mL
[9]
  MIC: < 1.56 µg/mL
Nakaseomyces glabratus [10]
  MFC: > 100 µg/mL
Vibrio vulnificus [11]
  MIC: < 1.56 µg/mL
Enterococcus faecium [12]
  MBC: < 1.56 µg/mL
Vibrio harveyi [13]
  MIC: < 1.56 µg/mL
Candida tropicalis [14]
  MIC: > 100 µg/mL
Vibrio anguillarum [15]
  MIC: < 1.56 µg/mL
Vibrio vulnificus [16]
  MIC: < 1.56 µg/mL
Acinetobacter baumannii
  MIC: 0.048 µg/mL
Aeromonas hydrophila [17]
  MIC: < 1.56 µg/mL
Klebsiella pneumoniae [18]
  MBC: 100 µg/mL
Escherichia coli [19]
  MBC: 50 µg/mL
Salmonella enterica [20]
  MBC: 25 µg/mL
Pseudomonas aeruginosa [21]
  MIC: 6.25 µg/mL
Streptococcus iniae [22]
  MBC: < 1.56 µg/mL
Vibrio vulnificus [23]
  MBC: < 1.56 µg/mL
Klebsiella aerogenes [24]
  MIC: 1.56 µg/mL
[25]
  MBC: < 1.56 µg/mL
Vibrio vulnificus [27]
  MIC: < 1.56 µg/mL
Candida tropicalis [28]
  MFC: > 100 µg/mL
Vibrio vulnificus [29]
  MBC: < 1.56 µg/mL
Escherichia coli [30]
  MIC: < 1.56 µg/mL
Vibrio alginolyticus [31]
  MBC: 12.5 µg/mL
Streptococcus iniae [32]
  MIC: < 1.56 µg/mL
Vibrio vulnificus [33]
  MBC: < 1.56 µg/mL
Vibrio harveyi [34]
  MBC: 12.5 µg/mL
Salmonella typhimurium [35]
  MBC: 50 µg/mL
Aeromonas hydrophila [36]
  MBC: 12.5 µg/mL
Vibrio anguillarum [37]
  MBC: 50 µg/mL
Klebsiella oxytoca [38]
  MBC: 25 µg/mL
Vibrio vulnificus [48]
  fold change (FC): 128
Enterococcus faecium [39]
  MIC: < 1.56 µg/mL
Salmonella enterica [40]
  MIC: < 1.56 µg/mL
Enterococcus faecalis [41]
  MBC: 6.25 µg/mL
Edwardsiella tarda [42]
  MBC: < 1.56 µg/mL
Streptococcus agalactiae [43]
  MIC: < 1.56 µg/mL
Vibrio vulnificus [44]
  MBC: < 1.56 µg/mL
Nakaseomyces glabratus [45]
  MIC: > 100 µg/mL
Enterococcus faecalis [46]
  MIC: 6.25 µg/mL
